In one data set the test system is isolated rat hepatocytes. The data set is described as follows: Viability of suspensions of rat hepatocytes after freezing, calcein/PI test by flow cytometry. It is filed as cell-based. The note with it: 7 days of freezing; 1.5×10^6 cells/ml; 20 mg protein/extract or 15% DMSO in WME; FIG. 1.
Data set [1] deals with rat hepatocytes. The data set is described as follows: Adherence and cellular morphology by confocal microscopy. It is filed as cell-based. The note with it: 24 h after seeding, FIG. 3. As for the experimental part:
Adherence and cellular morphology. Adherence and cellular morphology were evaluated by confocal microscopy. For the confocal microscopy observations, tissue culture plates coated with collagen were used. All analyses were carried out using the confocal microscope MRC1024 from BioRad (Microscience, Cambridge, Mass.) equipped with an argon laser (excitation at 488 nm) combined with an inverted microscope Eclipse Model TE 3000 (Nikon, Montreal, QC) with objectives of 40× Hoffman.

In another data set the test system is CYP2B. The data set is described as follows: PROD assay after 24 h induction with benzo-a-pyrene in cryopreserved hepatocytes. Type of data set: cell-based, rat. The settings on record: 48 h after seeding, FIG. 5A. As for the experimental part:
(§1) Enzymatic activity and protein expression of cytochrome P450 isoforms. CYP1A1 and 2B enzymatic activities were measured in hepatocyte cultures induced with benzo-a-pyrene (10 μM). Cells were washed 2 times with PBS and the substrates EROD (8 μM) or PROD (17 μM) (λexc: 530 nm; λem: 585 nm) were added to the culture dishes and incubated for 1 h. The supernatant (300 μl) was mixed with 200 μl of ETOH and the activity in 200 μl of the mixture was measured using an ELISA reader at 585 nm. Enzymatic activity was determined using a standard curve ranging from 0 to 200 μM of resorufin.

For a further data set, the system named is CYP1A1. The data set is described as follows: EROD assay after 24 h induction with benzo-a-pyrene in cryopreserved hepatocytes. The settings on record: 48 h after seeding, FIG. 5A. Type of data set: cell-based, rat. As for the experimental part:
as §1

For data set [2], the system named is rat hepatocytes. The data set is described as follows: Plating efficiency by LDH activity. Type of data set: cell-based. The note with it: culture period 3 hours. On the procedure: Thawing of cryopreserved hepatocytes. The frozen hepatocytes were thawed quickly by gentle agitation in a 37° C. water bath. Viability assays were performed on the hepatocyte suspension. For adherence and metabolic assays, the hepatocyte suspension was diluted 10-fold by addition of cold WME medium, immediately after thawing. […] After centrifugation (4° C., 50 g, 2 min), hepatocytes were suspended in 10 ml of WME medium. Hepatocytes were washed twice as above, then suspended at 3.5×10^5/ml in WME and cultured in tissue culture plates in WME medium supplemented with insulin and gentamicin in a humidified atmosphere of 5% CO2 and 95% air at 37° C. After 3 h, the medium was changed and cells were incubated overnight in L-15 medium supplemented with insulin and gentamicin. Plating efficiency. Plating efficiency was determined by measuring the LDH activity in cells prior to seeding and in 3 and 24 h-old cultures. Plating efficiency was defined as the LDH activity in 24 h-old cultures divided by the LDH activity in pre-culture cells.

The test system of data set [3] is rat hepatocytes. The data set is described as follows: Viability of seeded thawed hepatocytes by LDH release. The settings on record: after 24 h in culture; cryopreserved 7 days; FIG. 2. It is filed as cell-based. For orientation: LDH in the medium is a marker of cell lysis.
Procedure: The frozen hepatocytes were thawed quickly by gentle agitation in a 37° C. water bath. Viability assays were performed on the hepatocyte suspension. For adherence and metabolic assays, the hepatocyte suspension was diluted 10-fold by addition of cold WME medium, immediately after thawing. A 30% isotonic Percoll centrifugation step was performed to remove dead cells when viability was lower than 80%. After centrifugation (4° C., 50 g, 2 min), hepatocytes were suspended in 10 ml of WME medium. […] After 3 h, the medium was changed and cells were incubated overnight in L-15 medium supplemented with insulin and gentamicin.
Lactate dehydrogenase (LDH) activity was determined in the medium of seeded hepatocytes as a measure of hepatocyte deterioration as described by Moldeus et al. (17). The hepatocyte culture medium was removed daily and the activity of the LDH released into the medium was quantified (18).
For data set [4], the system named is rat hepatocytes. The data set is described as follows: Ammonium detoxification to urea (urea determination). Type of data set: cell-based. The note with it: after 4 days in culture; FIG. 4B. As for the experimental part: Urea determination. To evaluate the hepatocyte-mediated biotransformation of ammonia to urea, seeded hepatocytes were exposed to L-15 culture medium containing 10 mM NH4Cl. Samples of media were collected at the beginning and after 24 h intervals of exposure to ammonia, during 3 days. Urea concentration in the samples was measured calorimetrically using the urea nitrogen reagent set (BioTron Diagnostics, Hemet, Calif.) and an ELISA reader at 540 nm. Concentrations of urea were determined using a standard curve ranging from 0 to 45 mg/dl of urea. The results are presented as μg urea/10^6 cells.

The test system of data set [5] is rat hepatocytes. The data set is described as follows: Albumin secretion by sandwich ELISA. It is filed as cell-based. The note with it: after 4 days in culture; FIG. 4A. (In general: ELISA stands for enzyme-linked immunosorbent assay.)
Procedure: Determination of albumin secretion. Albumin secretion from hepatocytes was quantified every 24 h, until 96 h, in different hepatocyte culture media by the sandwich enzyme-linked immunosorbent assay (ELISA) according to Uotila et al. (19), with minor modifications (20). Briefly, 96-well plates (Nunc, Napierville, Ill.) were coated with anti-rat albumin rabbit antiserum (1 μg/ml). The plates were incubated for 30 min at room temperature (RT), then at 4° C. overnight, washed with phosphate buffered saline (PBS), blocked for 30 min at RT with 5% FBS in PBS, and then rewashed with PBS. Serial dilutions of sample and albumin standard were added (200 μl/well). The plates were incubated for III at RT and washed with PBS supplemented with 0.05% Tween-20 (PBS-T). Thereafter, the secondary antibody (peroxidase-conjugated anti-rat albumin; 2 μg/ml) was added and the plates were incubated for 1 h at RT. After 3 washings with PBS-T, the plates were incubated with the substrate o-phenylendiamine (OPND) (0.1 M NaH2PO4, 1 mg/ml OPND, 0.4 μl/ml H2O2) for 30 min at RT in the dark. The reaction was stopped with 4 M H2SO4. Albumin concentrations were determined at 550 nm using a standard curve ranging from 0 to 250 ng/dl of rat albumin using an ELISA reader ([sequence]luor Plus™, Tecan, Calif.).

The text below walks through data of US20080254439A1, “Plant Extract and Use Thereof as a Cryoprotective Agent” (priority 2005, published 2008).

Procedure for isolated rat hepatocytes: Hepatocytes were isolated from male Sprague-Dawley rats (120-180 g), obtained from Charles River Canada (Saint-Constant, QC), in a two-step collagenase digestion technique (13; 14). […] Cell viability was evaluated by flow cytometry (FACScan™, Becton Dickinson, Oakville, ON) with 2 μM PI (16).
Cryopreservation of isolated hepatocytes. Immediately after isolation, the hepatocyte suspension was added to a mixture of ice-cold WME medium supplemented with 10% FBS and non-acclimated (NA) or CA wheat protein extracts (WPEs) in cold cryovials. […] The tubes containing cells were then frozen at a cooling rate of 1° C./min in a controlled freezing container (Nalgene, Rochester, N.Y.) to −80° C. for one day, and then transferred to liquid nitrogen.
Viability assays. After freeze/thaw cycles, hepatocyte suspensions were stained with the fluorescent probes 4 μM calcein and 2 μM PI in WME medium for 5 minutes. The samples were analyzed by flow cytometry (excitation at 488 nm) using a Becton Dickinson FACScan™. The number of live cells expressing green fluorescence of calcein and the number of dead cells expressing red fluorescence of PI were determined with Cell Quest™ software (Becton Dickinson, Oakville, ON).

`C[S+](C)[O-]` [DMSO, dimethyl sulfoxide]: the “Viability of rat hepatocytes after freezing” value in the data set on isolated rat hepatocytes was 62.5%. Moreover, the Cell-to-cell contacts entry with rat hepatocytes [1] is on record as “no cell-cell contacts were detected”. Further, the “Relative activity of P450 CYP2B compared to fresh hepatocytes” value with CYP2B is “decreased slightly”. In the data set with CYP1A1, the “Relative activity of P450 CYP1A1 compared to fresh hepatocytes” value is listed as “decreased slightly”. The molecule also yielded a Plating efficiency with rat hepatocytes [2] of 64.9 ± 1.7%. Besides, the “Viability (LDH) of thawed hepatocytes in culture” value with rat hepatocytes [3] came out at 60.2%. For the same molecule, in the data set with rat hepatocytes [4], the “Initial detoxification activity maintained (urea production)” value is listed as 16%. Further, the “Albumin secretory activity maintained” value in the data set on rat hepatocytes [5] is 48%.
